# Data published in US10024845B2, “Methods for determining modulators of insect transient receptor potential V (TRPV) channel” (BASF SE, priority 2013, dated 2018).
# “Also recorded” adds a separate entry of the source. Like-named read-outs stand apart in the source and are kept apart here.
# What was measured:
# [1] = test system: insect TRPV channel (Drosophila Nanchung and Inactive co-expressed); format: cell-based; conditions: for Response of cells (fluorescence units), Insect TRPV cells: single high dose 20 μM; for Inhibition of stimulation of the insect TRPV channel: cell-impermeable ion channel blocker; for Ca2+ mobilization in cells co-expressing Nan and Iav (insect TRPV channel), in words: FLUO4 probe; for Dependence of the cell response on Ca2+ in the extracellular media: insect TRPV-expressing cells
# mouse TRPV4 (mTRPV4) = mouse TRPV4 (mTRPV4) (Mus musculus, UniProt Q9EPK8); assay: Ca2+ mobilization (FLUO4, FLIPR) in CHO-K1 cells expressing mTRPV4; format: cell-based; conditions: for Ca2+ mobilization in cells expressing mTRPV4, in words: FLUO4 probe
# parental CHO-K1 cells = format: cell-based, hamster
# [2] = CHO-K1 cells expressing insect TRPV
# [3] = single high dose 20 μM, CHO-K1 cells expressing mTRPV4
# [4] = single high dose 20 μM, parental CHO-K1 cells
# [5] = listed as metabolite B of Pyrifluquinazon
# Chain of mouse TRPV4 (mTRPV4) (Q9EPK8 whole entry): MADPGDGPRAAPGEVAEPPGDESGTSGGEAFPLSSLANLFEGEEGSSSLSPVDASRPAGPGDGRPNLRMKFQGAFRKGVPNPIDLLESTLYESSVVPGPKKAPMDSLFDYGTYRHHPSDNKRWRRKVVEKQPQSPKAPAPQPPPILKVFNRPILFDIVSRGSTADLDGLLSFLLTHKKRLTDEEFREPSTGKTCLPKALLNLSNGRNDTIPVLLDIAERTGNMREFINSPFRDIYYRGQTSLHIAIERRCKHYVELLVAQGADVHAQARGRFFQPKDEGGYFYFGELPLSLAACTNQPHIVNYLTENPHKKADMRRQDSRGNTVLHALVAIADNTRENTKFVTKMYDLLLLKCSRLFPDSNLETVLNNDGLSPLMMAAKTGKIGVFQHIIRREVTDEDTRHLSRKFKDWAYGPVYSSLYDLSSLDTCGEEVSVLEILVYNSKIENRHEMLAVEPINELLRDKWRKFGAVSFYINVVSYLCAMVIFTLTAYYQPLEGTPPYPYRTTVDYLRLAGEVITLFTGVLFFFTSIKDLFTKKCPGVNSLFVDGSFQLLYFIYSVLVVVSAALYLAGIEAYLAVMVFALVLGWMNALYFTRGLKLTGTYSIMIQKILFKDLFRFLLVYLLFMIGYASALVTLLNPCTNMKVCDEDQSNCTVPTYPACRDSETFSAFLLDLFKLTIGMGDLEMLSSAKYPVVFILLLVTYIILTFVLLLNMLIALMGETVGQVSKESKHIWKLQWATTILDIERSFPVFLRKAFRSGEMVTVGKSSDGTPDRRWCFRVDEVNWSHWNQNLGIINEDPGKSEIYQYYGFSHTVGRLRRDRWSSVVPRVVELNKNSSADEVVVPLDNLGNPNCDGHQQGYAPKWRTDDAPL
Compound,"Response of cells (fluorescence units), Insect TRPV cells [1, 2]","Response of cells (fluorescence units), mTRPV4 cells (mouse TRPV4 (mTRPV4); [3])","Response of cells (fluorescence units), Parental CHO cells (parental CHO-K1 cells; [4])",also measured
ClC1=C(Cl)[C@]2(Cl)[C@@H]3[C@@H]4C[C@@H]([C@H]5O[C@@H]45)[C@@H]3[C@@]1(Cl)C2(Cl)Cl [Dieldrin],78 fluorescence units,52 fluorescence units,73 fluorescence units,–
N.N.N.N.N.N.N.N.N.N.N.N.N.N.[Cl-].[Cl-].[Cl-].[Cl-].[Cl-].[Cl-].[O-2].[O-2].[Ru+3].[Ru+3].[Ru+4] [Ruthenium red],–,–,–,Inhibition of stimulation of the insect TRPV channel [1]: inhibited; Inhibition of stimulation of the insect TRPV channel ([1]; listed as ruthenium red): inhibition of the response
CC(=O)N1C(=O)N(NCc2cccnc2)Cc2cc(C(F)(C(F)(F)F)C(F)(F)F)ccc21 [pyrifluquinazon],–,–,–,"Ca2+ mobilization in cells co-expressing Nan and Iav (insect TRPV channel), in words [1]: triggered Ca^2+ mobilization; Dependence of the cell response on Ca2+ in the extracellular media [1]: absolutely dependent on the presence of Ca^2+ in the extracellular media"
CN1CCCC1c1cccnc1 (centres unmarked) [Nicotine],81 fluorescence units,–,–,"Response of cells (fluorescence units), mTRPV4 cells (mouse TRPV4 (mTRPV4)): 8 fluorescence units; Response of cells (fluorescence units), Parental CHO cells (parental CHO-K1 cells): 65 fluorescence units"
"CC(C)C[C@H](NC(=O)c1cc2ccccc2s1)C(=O)N1CCN(C(=O)[C@H](CO)NS(=O)(=O)c2ccc(Cl)cc2Cl)CC1 [GSK1016790A, N-((1 S)-1-{[4-((2 S)-2-{[(2,4-dichlorophenyl)sulfonyl]amino}-3-hydroxypropanoyl)-1-piperazinyl]carbonyl}-3-methylbutyl)-1-benzothiophene-2-carboxamide]",53 fluorescence units,2017 fluorescence units,71 fluorescence units,"Ca2+ mobilization in cells expressing mTRPV4, in words (mouse TRPV4 (mTRPV4)): induced strong Ca^2+ mobilization response; also recorded: strong activation"
CN/C(=N/CC1CCOC1)N[N+](=O)[O-] (centres unmarked) [Dinotefuran],48 fluorescence units,23 fluorescence units,–,"Response of cells (fluorescence units), Parental CHO cells (parental CHO-K1 cells): 23 fluorescence units"
CN1CCN2c3ccccc3Cc3ccccc3C2C1 (centres unmarked) [Miansenn],–,30 fluorescence units,110 fluorescence units,"Response of cells (fluorescence units), Insect TRPV cells ([1]; […]): 86 fluorescence units"
CC[S+]([O-])c1c(C#N)nn(-c2c(Cl)cc(C(F)(F)F)cc2Cl)c1N (centres unmarked) [Ethiprole],154 fluorescence units,113 fluorescence units,357 fluorescence units,–
NCCCC(=O)O [GABA],68 fluorescence units,43 fluorescence units,100 fluorescence units,–
CC1=NNC(=O)N(/N=C/c2cccnc2)C1 [pymetrozine],–,–,–,"Ca2+ mobilization in cells co-expressing Nan and Iav (insect TRPV channel), in words [1]: triggered Ca^2+ mobilization; also recorded: activation of insect TRPV channel; Ca2+ mobilization in cells co-expressing Nan and Iav (insect TRPV channel), in words ([1]; listed as Pymetrozine): triggered Ca^2+ mobilization; Ca2+ mobilization in cells expressing mTRPV4, in words (mouse TRPV4 (mTRPV4); listed as Pymetrozine): had no effect"
N#C/N=C1\SCCN1Cc1ccc(Cl)nc1 [Thiacloprid],36 fluorescence units,16 fluorescence units,29 fluorescence units,–
c1ccc2c(CC3=NCCN3)cccc2c1 [Naphazoline],31 fluorescence units,11 fluorescence units,50 fluorescence units,–
O=[N+]([O-])NC1=NCCN1Cc1ccc(Cl)nc1 [Imidacloprid],42 fluorescence units,16 fluorescence units,69 fluorescence units,–
O=C1Nc2ccc(C(F)(C(F)(F)F)C(F)(F)F)cc2CN1NCc1cccnc1 [Pyrifluquinazon metabolite B],538 fluorescence units,346 fluorescence units,40 fluorescence units,"Potency relative to the parental compound pyrifluquinazon [1]: about 100 fold; Ca2+ mobilization in cells co-expressing Nan and Iav (insect TRPV channel), in words [1]: activation of insect TRPV channel; Ca2+ mobilization in cells co-expressing Nan and Iav (insect TRPV channel), in words [1, 5]: triggered Ca^2+ mobilization; Dependence of the cell response on Ca2+ in the extracellular media [1]: requires presence of Ca^2+ in the extracellular media; Potency against mouse TRPV4 relative to Drosophila TRPV channel (mouse TRPV4 (mTRPV4)): ~100 fold; Ca2+ mobilization in cells expressing mTRPV4, in words (mouse TRPV4 (mTRPV4)): weak activation; Ca2+ mobilization in cells expressing mTRPV4, in words (mouse TRPV4 (mTRPV4); [5]): did trigger Ca^2+ mobilization"
Clc1ccc(C2CC3CCC2N3)cn1 (centres unmarked) [Epibatidine],–,63 fluorescence units,49 fluorescence units,"Response of cells (fluorescence units), Insect TRPV cells ([1]; […]): 70 fluorescence units"
Cl[C@H]1[C@H](Cl)[C@@H](Cl)[C@@H](Cl)[C@H](Cl)[C@H]1Cl [Lindane],35 fluorescence units,12 fluorescence units,19 fluorescence units,–
Cc1ccc(/N=C/N(C)/C=N/c2ccc(C)cc2C)c(C)c1 [Amitraz],58 fluorescence units,25 fluorescence units,50 fluorescence units,–
N#Cc1nn(-c2c(Cl)cc(C(F)(F)F)cc2Cl)c(N)c1[S+]([O-])C(F)(F)F (centres unmarked) [Fipronil],133 fluorescence units,60 fluorescence units,240 fluorescence units,–
Abamectin,49 fluorescence units,30 fluorescence units,52 fluorescence units,–
Clc1cccc(Cl)c1N=C1NCCN1 [Clonidine],135 fluorescence units,–,–,"Response of cells (fluorescence units), mTRPV4 cells (mouse TRPV4 (mTRPV4)): 62 fluorescence units; Response of cells (fluorescence units), Parental CHO cells (parental CHO-K1 cells): 136 fluorescence units"
Ryanodine,–,19 fluorescence units,75 fluorescence units,"Response of cells (fluorescence units), Insect TRPV cells ([1]; […]): 53 fluorescence units"
NCC(O)c1ccc(O)cc1 (centres unmarked) [Octopamine],66 fluorescence units,20 fluorescence units,45 fluorescence units,–
CNC(=O)c1cc(Cl)cc(C)c1NC(=O)c1cc(Br)nn1-c1ncccc1Cl [Rynaxapyr],43 fluorescence units,74 fluorescence units,93 fluorescence units,–
CC(=O)OCC[N+](C)(C)C [Acetylcholine],250 fluorescence units,–,797 fluorescence units,–
